Counter-ions that a name gives are not always drawn.

Here are results for 14 compounds from patent US9481659B2, “Selective heterocyclic sphingosine 1 phosphate receptor modulators” (Celgene International II SÀRL, priority 2011, dated 2016).

S1P1/EDG1, sequence (P21453 whole entry): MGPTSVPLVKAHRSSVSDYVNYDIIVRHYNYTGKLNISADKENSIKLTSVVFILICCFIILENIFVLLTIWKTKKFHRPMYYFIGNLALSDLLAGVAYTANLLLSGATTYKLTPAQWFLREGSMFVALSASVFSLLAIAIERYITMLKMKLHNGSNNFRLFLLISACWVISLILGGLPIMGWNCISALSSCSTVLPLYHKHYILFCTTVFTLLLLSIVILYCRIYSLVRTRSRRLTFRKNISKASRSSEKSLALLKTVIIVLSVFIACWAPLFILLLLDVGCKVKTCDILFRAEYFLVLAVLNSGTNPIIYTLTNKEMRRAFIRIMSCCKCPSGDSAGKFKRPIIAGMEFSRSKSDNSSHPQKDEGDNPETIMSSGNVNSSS

This experiment addresses S1P1/EDG1 (Homo sapiens, UniProt P21453). The experiment can be described thus: S1P1 CRE-bla CHOK1 reporter assay, inhibition of Forskolin induced cAMP. The class given is cell-based. Particulars: agonist activity range; S1P1 CRE-bla CHOK1 cells, 2 μM Forskolin; read-out: S1P1 ACTIVITY
Here is the method:
Generation of S1P1-Mediated Inhibition of cAMP Reporter Assay
A mammalian expression plasmid containing S1P1/EDG1 cloned into pcDNA3.1 was purchased from Missouri S&T cDNA Resource Centre. […] S1P1/pcDNA3.1 was transfected into the CRE-bla CHO K1 (Invitrogen) cell line, and stable single cell clones were selected using standard techniques.
S1P1 CRE-Bla CHOK1 Reporter Assay—Characterization of S1P1 Agonists
Cells were seeded into 384-well black wall/clear bottom plates at 10^4 cells/well/19.5 μl assay media (DMEM-phenol free, 0.5% charcoal/dextran stripped serum, 2 mM glutamine, 0.1 mM NEAA, 1 mM Na-Pyruvate, 25 mM Hepes) and incubated for 18 hrs at 37° C. in 5% CO2. Dose response curves (10-point) were generated in 10 mM Hepes, 0.1% Pluronic F127, in the presence of Forskolin. Cells were treated with 0.5 μl compound in the presence of 2 μM Forskolin for 4 hrs at 37° C. The FRET-based β-lactamase fluorescent substrate (LiveBLAzer™-FRET B/G Loading Kit CC4-AM; Invitrogen) was prepared according to manufacturer's directions, and incubated with cells for 2 hrs at room temperature.
On the technique in general: Reporter assays use an easily measured gene product as a stand-in for the process of interest.
For `CC(C)Oc1ccc(-c2nnc(-c3cccc4c3CCC4NS(=O)(=O)CCN3CC[C@@H](O)C3)s2)cc1C#N` (stereo in doubt) [Compound 37, N—((S)-4-(5-(3-cyano-4-isopropoxyphenyl)-1,3,4-thiadiazol-2-yl)-2,3-dihydro-1H-inden-1-yl)-2-((R)-3-hydroxypyrrolidin-1-yl)ethanesulfonamide], the EC50 lay within 0.5 to 5 nM.

For the compound `CC(C)Oc1ccc(-c2nnc(-c3cccc4c3CCC4NS(=O)(=O)CCN3CC[C@@H](O)C3)s2)cc1C#N` (stereo in doubt) [Compound 38, N—((R)-4-(5-(3-cyano-4-isopropoxyphenyl)-1,3,4-thiadiazol-2-yl)-2,3-dihydro-1H-inden-1-yl)-2-((R)-3-hydroxypyrrolidin-1-yl)ethanesulfonamide], the EC50 fell in the range of 0.5 to 5 nM. Under `CC(C)Oc1ccc(-c2nnc(-c3cccc4c3CC[C@H]4O)s2)cc1C#N` [Compound 2, (R)-5-(5-(1-hydroxy-2,3-dihydro-1H-inden-4-yl)-1,3,4-thiadiazol-2-yl)-2-isopropoxybenzonitrile] stands 0.05 to 0.5 nM; under `CC(C)Oc1ccc(-c2nnc(-c3cccc4c3CC[C@H]4N)s2)cc1C#N` [Compound 5, (R)-5-(5-(1-amino-2,3-dihydro-1H-inden-4-yl)-1,3,4-thiadiazol-2-yl)-2isopropoxybenzonitrile hydrochloride], 0.5 to 5 nM. For `CC(C)Oc1ccc(-c2nnc(-c3cccc4c3CC[C@H]4NC(=O)CN)s2)cc1C#N` [Compound 9] the value was 0.05 to 0.5 nM; for `CC(C)Oc1ccc(-c2nnc(-c3cccc4c3CC[C@H]4NCCO)s2)cc1C#N` [Compound 17, (R)-5-(5-(1-((2-hydroxyethyl)amino)-2,3-dihydro-1H-inden-4-yl)-1,3,4-thiadiazol-2-yl)-2-isopropoxybenzonitrile], 0.05 to 0.5 nM; for `COCCN[C@@H]1CCc2c(-c3nnc(-c4ccc(OC(C)C)c(C#N)c4)s3)cccc21` [Compound 19], 0.5 to 5 nM.

As for `CC(C)Oc1ccc(-c2nnc(-c3cccc4c3CC[C@H]4NCC(=O)N(C)C)s2)cc1C#N` [Compound 22, (R)-2-((4-(5-(3-cyano-4-isopropoxyphenyl)-1,3,4-thiadiazol-2-yl)-2,3-dihydro-1H-inden-1-yl)amino)-N,N-dimethylacetamide hydrochloride], the EC50 was 0.05 to 0.5 nM. Under `CC(C)Oc1ccc(-c2nnc(-c3cccc4c3CC[C@H]4NCC(=O)N3CCOCC3)s2)cc1C#N` [Compound 25] stands 0.05 to 0.5 nM. Under `CC(C)Oc1ccc(-c2nnc(-c3cccc4c3CC[C@H]4NCC(=O)O)s2)cc1C#N` [Compound 27, (R)-2-((4-(5-(3-cyano-4-isopropoxyphenyl)-1,3,4-thiadiazol-2-yl)-2,3-dihydro-1H-inden-1-yl)amino)acetic acid] stands 0.05 to 0.5 nM. For `CC(C)Oc1ccc(-c2nnc(-c3cccc4c3CC[C@H]4NCc3ncc[nH]3)s2)cc1C#N` [Compound 29, (R)-5-(5-(1-(((1H-imidazol-2-yl)methyl)amino)-2,3-dihydro-1H-inden-4-yl)-1,3,4-thiadiazol-2-yl)-2-isopropoxybenzonitrile] the value was 0.05 to 0.5 nM; for `CC(C)Oc1ccc(-c2nnc(-c3cccc4c3CC[C@H]4NCCS(C)(=O)=O)s2)cc1C#N` [Compound 32, (R)-2-isopropoxy-5-(5-(1-((2-(methylsulfonyl)ethyl)amino)-2,3-dihydro-1H-inden-4-yl)-1,3,4-thiadiazol-2-yl)benzonitrile], less than 0.05 nM; for `CC(C)Oc1ccc(-c2nnc(-c3cccc4c3CC[C@H]4NS(C)(=O)=O)s2)cc1C#N` [Compound 34, (R)—N-(4-(5-(3-cyano-4-isopropoxyphenyl)-1,3,4-thiadiazol-2-yl)-2,3-dihydro-1H-inden-1-yl)methanesulfonamide], 0.05 to 0.5 nM. Turning to `CC(C)Oc1ccc(-c2nnc(-c3cccc4c3CC[C@H]4NCC(=O)N3CCCC3)s2)cc1C#N` [Compound 39], the EC50 fell in the range of 0.05 to 0.5 nM.
